This is an account of results in ChEMBL document CHEMBL4433269, “Design, synthesis and evaluation of biphenyl imidazole analogues as potent antifungal agents” (Bioorg Med Chem Lett, 2019).

Each structure is given as a SMILES string.

One may read the MIC as the smallest concentration in the dilution series that meets the test's criterion for growth inhibition. The IC50 is the concentration needed to halve the response being measured.

The subject of test [1] is Cryptococcus neoformans. As to the kind of experiment: Antifungal activity against Cryptococcus neoformans cgmcc 2.3161 assessed as inhibition of visible microbe growth by broth microdilution method. It is filed as functional. (Dilution methods test growth across graded concentrations, often in twofold steps.)
The subject of test [2] is Aspergillus fumigatus. Description: Antifungal activity against Aspergillus fumigatus cgmcc 3.7795 assessed as inhibition of visible microbe growth by broth microdilution method. It is filed as functional.
In test [3] the test system is Candida albicans. Description: Antifungal activity against Candida albicans ATCC SC5314 assessed as inhibition of visible microbe growth by broth microdilution method. It is filed as functional.
Test [4] deals with Candida tropicalis. As to the kind of experiment: Antifungal activity against Candida tropicalis cgmcc 2.3739 assessed as inhibition of visible microbe growth by broth microdilution method. It is filed as functional.
Test [5] deals with Candida albicans. As to the kind of experiment: Antifungal activity against Candida albicans CPCC 400523 assessed as inhibition of visible microbe growth by broth microdilution method. The test is classed as functional.
Test [6] has as its target Cytochrome P450 2C9 (Homo sapiens, UniProt P11712). Description: Inhibition of CYP2C9 in human liver microsomes using diclofenac pre-incubated for 10 mins before NADPH addition and measured after 10 mins by LC/MS/MS analysis. The test is classed as ADME. (In general: Liver microsomes are vesicles of endoplasmic reticulum, rich in cytochrome P450 enzymes.)
Test [7] has as its target Cytochrome P450 2D6 (Homo sapiens, UniProt P10635). Description: Inhibition of CYP2D6 in human liver microsomes using dextromethorphan pre-incubated for 10 mins before NADPH addition and measured after 10 mins by LC/MS/MS analysis. It is filed as ADME.
Test [8] concerns A549. Description: Cytotoxicity in human A549 cells assessed as reduction in cell viability incubated for 24 hrs by MTT assay. It is filed as cell-based. As to conditions: A549, 24 h. In general terms: Tetrazolium assays rely on reduction of a dye to a coloured formazan, in cell work by metabolically active cells.
The subject of test [9] is Candida albicans. As to the kind of experiment: Antifungal activity against fluconazole-resistant Candida albicans 103 assessed as inhibition of visible microbe growth by broth microdilution method. The test is classed as functional.
Test [10] addresses T1, Cytochrome P450 1A2 (Homo sapiens, UniProt P05177).
T1 sequence (P05177 whole entry): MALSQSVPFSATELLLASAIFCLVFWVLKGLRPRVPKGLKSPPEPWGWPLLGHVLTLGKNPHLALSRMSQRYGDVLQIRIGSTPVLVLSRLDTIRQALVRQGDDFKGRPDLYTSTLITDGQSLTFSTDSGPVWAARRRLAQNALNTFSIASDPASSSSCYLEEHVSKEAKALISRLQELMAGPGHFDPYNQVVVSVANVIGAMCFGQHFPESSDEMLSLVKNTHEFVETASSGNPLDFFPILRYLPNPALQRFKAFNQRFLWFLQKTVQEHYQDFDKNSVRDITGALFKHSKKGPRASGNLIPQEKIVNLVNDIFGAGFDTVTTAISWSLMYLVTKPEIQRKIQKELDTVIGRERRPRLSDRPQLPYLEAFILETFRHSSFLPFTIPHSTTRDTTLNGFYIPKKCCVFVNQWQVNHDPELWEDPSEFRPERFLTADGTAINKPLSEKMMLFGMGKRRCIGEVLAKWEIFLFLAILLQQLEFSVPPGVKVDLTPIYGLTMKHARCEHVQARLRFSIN
As to the kind of experiment: Inhibition of CYP1A2 in human liver microsomes using phenacetin pre-incubated for 10 mins before NADPH addition and measured after 10 mins by LC/MS/MS analysis. It is filed as ADME.

Test [11] addresses Cytochrome P450 2C19 (Homo sapiens, UniProt P33261). As to the kind of experiment: Inhibition of CYP2C19 in human liver microsomes using S-mephenytoin pre-incubated for 10 mins before NADPH addition and measured after 10 mins by LC/MS/MS analysis. It is filed as ADME.
Test [12] has as its system Candida albicans. Description: Antifungal activity against fluconazole-resistant Candida albicans 100 assessed as inhibition of visible microbe growth by broth microdilution method. It is filed as functional.
Test [13] has as its target Cytochrome P450 3A4 (Homo sapiens, UniProt P08684). As to the kind of experiment: Inhibition of CYP3A4 in human liver microsomes using midazolam pre-incubated for 10 mins before NADPH addition and measured after 10 mins by LC/MS/MS analysis. The test is classed as ADME.
Test [14] deals with U-87 MG. Description: Cytotoxicity in human U87 cells assessed as reduction in cell viability incubated for 24 hrs by MTT assay. It is filed as cell-based, U-87MG ATCC.

Cytochrome P450 2C19, sequence (P33261 whole entry): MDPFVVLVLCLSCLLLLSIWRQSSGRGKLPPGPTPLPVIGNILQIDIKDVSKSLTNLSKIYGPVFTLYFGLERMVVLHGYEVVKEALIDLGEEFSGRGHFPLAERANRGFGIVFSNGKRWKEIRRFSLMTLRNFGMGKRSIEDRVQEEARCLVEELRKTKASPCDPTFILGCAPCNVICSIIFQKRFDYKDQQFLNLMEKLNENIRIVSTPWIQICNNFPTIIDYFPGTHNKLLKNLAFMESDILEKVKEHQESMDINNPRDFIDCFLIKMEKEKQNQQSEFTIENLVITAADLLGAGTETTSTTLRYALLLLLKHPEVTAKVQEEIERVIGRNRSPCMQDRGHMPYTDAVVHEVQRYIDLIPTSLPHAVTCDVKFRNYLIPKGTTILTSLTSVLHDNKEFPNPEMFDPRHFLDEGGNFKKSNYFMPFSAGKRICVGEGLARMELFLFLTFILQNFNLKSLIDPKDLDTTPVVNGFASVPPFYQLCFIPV
Cytochrome P450 2C9, sequence (P11712 whole entry): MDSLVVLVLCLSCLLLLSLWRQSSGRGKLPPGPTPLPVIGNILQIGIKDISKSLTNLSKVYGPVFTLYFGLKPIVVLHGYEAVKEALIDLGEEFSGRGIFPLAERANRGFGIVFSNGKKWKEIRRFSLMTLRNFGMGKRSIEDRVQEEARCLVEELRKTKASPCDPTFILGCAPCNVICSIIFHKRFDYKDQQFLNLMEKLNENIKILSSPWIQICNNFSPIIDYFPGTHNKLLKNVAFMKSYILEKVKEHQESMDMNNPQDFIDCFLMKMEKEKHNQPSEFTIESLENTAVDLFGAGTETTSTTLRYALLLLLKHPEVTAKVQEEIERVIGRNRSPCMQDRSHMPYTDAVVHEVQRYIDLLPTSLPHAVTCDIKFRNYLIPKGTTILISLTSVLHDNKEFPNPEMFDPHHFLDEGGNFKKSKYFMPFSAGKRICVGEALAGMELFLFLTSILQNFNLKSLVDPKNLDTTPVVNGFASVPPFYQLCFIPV
Cytochrome P450 2D6, sequence (P10635 whole entry): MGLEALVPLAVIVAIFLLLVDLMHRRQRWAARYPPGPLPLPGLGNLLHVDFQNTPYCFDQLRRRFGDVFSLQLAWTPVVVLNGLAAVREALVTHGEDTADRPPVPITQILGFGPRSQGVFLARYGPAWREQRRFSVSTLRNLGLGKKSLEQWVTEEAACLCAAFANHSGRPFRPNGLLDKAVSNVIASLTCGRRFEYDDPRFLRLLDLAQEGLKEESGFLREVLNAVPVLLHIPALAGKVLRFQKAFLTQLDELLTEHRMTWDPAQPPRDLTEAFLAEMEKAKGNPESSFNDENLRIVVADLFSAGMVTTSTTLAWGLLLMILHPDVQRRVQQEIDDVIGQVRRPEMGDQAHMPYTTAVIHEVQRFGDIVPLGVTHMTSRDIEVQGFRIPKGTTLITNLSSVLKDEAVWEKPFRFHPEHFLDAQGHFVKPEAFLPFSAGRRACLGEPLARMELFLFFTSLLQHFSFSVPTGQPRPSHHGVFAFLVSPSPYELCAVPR
Cytochrome P450 3A4, sequence (P08684 whole entry): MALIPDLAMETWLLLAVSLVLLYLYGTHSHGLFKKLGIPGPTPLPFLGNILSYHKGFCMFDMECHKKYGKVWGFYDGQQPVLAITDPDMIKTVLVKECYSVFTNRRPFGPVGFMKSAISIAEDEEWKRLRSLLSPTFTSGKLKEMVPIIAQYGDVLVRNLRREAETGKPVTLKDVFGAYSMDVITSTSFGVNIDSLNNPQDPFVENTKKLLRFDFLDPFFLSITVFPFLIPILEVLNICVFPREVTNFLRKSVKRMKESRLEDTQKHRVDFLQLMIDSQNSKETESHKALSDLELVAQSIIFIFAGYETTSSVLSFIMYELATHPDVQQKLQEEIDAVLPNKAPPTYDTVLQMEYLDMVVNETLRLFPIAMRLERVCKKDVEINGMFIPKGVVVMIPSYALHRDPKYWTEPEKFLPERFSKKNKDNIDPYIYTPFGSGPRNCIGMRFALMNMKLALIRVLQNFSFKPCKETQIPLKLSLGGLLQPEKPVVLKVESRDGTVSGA

As to `CC(C)COC(=O)[C@H](Cn1ccnc1)NC(=O)c1ccc(-c2ccccc2)c(F)c1`, the minimum inhibitory concentration (MIC) in [1] is above 16 µg/mL; in test [2], 4 µg/mL; in [3], 0.25 µg/mL; in test [4], 0.0312 µg/mL; in test [5], 0.0312 µg/mL.
As to `CC(C)COC(=O)[C@H](Cn1ccnc1)NC(=O)c1ccc(-c2ccccc2)cc1Cl`, the MIC in test [1] is 8 µg/mL; in test [2], above 16 µg/mL; in test [3], 4 µg/mL; in test [4], 0.25 µg/mL; in test [5], 8 µg/mL.
`CC(C)OC(=O)[C@H](Cn1ccnc1)NC(=O)c1c(F)cc(-c2ccccc2)cc1F`: the MIC is above 16 µg/mL in test [1]; above 16 µg/mL in test [2]; 0.5 µg/mL in test [3]; 0.5 µg/mL in test [4]; 2 µg/mL in test [5].
For the molecule `Cc1cc(C(=O)N[C@@H](Cn2ccnc2)C(=O)OCC(C)C)ccc1-c1ccccc1`, the MIC in test [1] was above 16 µg/mL; in [2], above 16 µg/mL; in test [3], above 16 µg/mL; in test [4], 4 µg/mL; in [5], above 16 µg/mL.
For `CC(C)OC(=O)[C@H](Cn1ccnc1)NC(=O)c1ccc(-c2ccccc2)c(F)c1`, the IC50 in test [6] is above 50 µM; in test [7], above 50 µM; in [8] it was above 50 µM; in test [10], above 50 µM; in test [11] it was 43.4 µM; in [13], 4.05 µM. Also, in test [14], the IC50 is above 50 µM. The minimal inhibitory concentration (MIC) in [1] was found to be 8 µg/mL; in test [2], 2 µg/mL; in test [9], 2 µg/mL; in test [3], 0.5 µg/mL; in test [4], 0.0312 µg/mL; in [12] it was 8 µg/mL. The MIC in test [5] was 0.0312 µg/mL.
Consider `CC(C)OC(=O)[C@H](Cn1ccnc1)NC(=O)c1ccc(-c2ccccc2)cc1Cl`, for which the MIC is 8 µg/mL in [1]; above 16 µg/mL in test [2]; 4 µg/mL in test [3]; 0.5 µg/mL in test [4]; 8 µg/mL in test [5].
In the case of `CC(C)COC(=O)[C@H](Cn1ccnc1)NC(=O)c1ccc(-c2ccccc2F)c(F)c1`, the MIC in test [1] was above 16 µg/mL; in [2], above 16 µg/mL; in test [9], 4 µg/mL; in [3], 0.25 µg/mL; in test [4], 0.0625 µg/mL; in test [12] it was 8 µg/mL. For the same molecule, the minimal inhibitory concentration (MIC) in test [5] is 0.0625 µg/mL.
`COc1cc(-c2ccccc2)ccc1C(=O)N[C@@H](Cn1ccnc1)C(=O)OCC(C)C`: the MIC in test [1] is above 16 µg/mL; in test [2], above 16 µg/mL; in test [3] it was above 16 µg/mL; in test [4], 2 µg/mL; in test [5] it was 4 µg/mL.
Consider `Cc1cc(-c2ccccc2)ccc1C(=O)N[C@@H](Cn1ccnc1)C(=O)OCC(C)C`, for which the MIC in test [1] is above 16 µg/mL; in test [2], above 16 µg/mL; in [3] it was above 16 µg/mL; in test [4] it was 0.5 µg/mL; in test [5], 2 µg/mL.
`CC(C)OC(=O)[C@H](Cn1ccnc1)NC(=O)c1ccc(-c2ccccc2F)cc1F`: the MIC in test [1] was above 16 µg/mL; in test [2], above 16 µg/mL; in test [3], 0.5 µg/mL; in [4] it was 0.25 µg/mL; in test [5], 0.125 µg/mL.
For `CC(C)COC(=O)[C@H](Cn1ccnc1)NC(=O)c1ccc(-c2ccccc2)cc1F`, the minimal inhibitory concentration (MIC) in [1] is above 16 µg/mL; in [2] it was 8 µg/mL; in test [3], 0.25 µg/mL; in test [4], 0.0312 µg/mL; in test [5], 0.0312 µg/mL.
With `Cc1cc(C(=O)N[C@@H](Cn2ccnc2)C(=O)OC(C)C)ccc1-c1ccccc1`, the minimum inhibitory concentration (MIC) in test [1] is above 16 µg/mL; in [2] it was above 16 µg/mL; in [3], above 16 µg/mL; in [4], 8 µg/mL; in test [5] it was above 16 µg/mL.
As to `CCC(C)n1ncn(-c2ccc(N3CCN(c4ccc(OCC5COC(Cn6cncn6)(c6ccc(Cl)cc6Cl)O5)cc4)CC3)cc2)c1=O` (centres undefined) [ITRACONAZOLE], the MIC came to 1 µg/mL in [1]; 4 µg/mL in [2]; 0.0625 µg/mL in test [3]; 0.5 µg/mL in [4]; 0.25 µg/mL in test [5].
Regarding `CC(C)OC(=O)[C@H](Cn1ccnc1)NC(=O)c1ccc(-c2ccccc2)cc1F`, the IC50 is 4.49 µM in [6]; 19.1 µM in test [7]; above 50 µM in test [8]; above 50 µM in test [10]; 7.44 µM in test [11]; 0.0429 µM in test [13]. Moreover, the half-maximal inhibitory concentration (IC50) in test [14] is above 50 µM. The MIC is above 16 µg/mL in test [1]; 4 µg/mL in test [2]; 4 µg/mL in test [9]; 0.25 µg/mL in test [3]; 0.0312 µg/mL in test [4]; 16 µg/mL in test [12]. For the same molecule, the MIC in [5] came to 0.0312 µg/mL.
Consider `CC(C)OC(=O)[C@H](Cn1ccnc1)NC(=O)c1ccc(-c2ccccc2)c(Cl)c1`, for which the MIC in test [1] is 8 µg/mL; in [2], above 16 µg/mL; in test [3], 8 µg/mL; in test [4], 1 µg/mL; in test [5] it was 8 µg/mL.
For `CC(C)OC(=O)[C@H](Cn1ccnc1)NC(=O)c1ccc(-c2ccc(C#N)cc2)cc1F`, the MIC in test [1] is above 16 µg/mL; in test [2], above 16 µg/mL; in test [3] it was 8 µg/mL; in test [4], 2 µg/mL; in test [5], 4 µg/mL.
In the case of `Cc1cc(-c2ccccc2)ccc1C(=O)N[C@@H](Cn1ccnc1)C(=O)OC(C)C`, the MIC in test [1] was above 16 µg/mL; in test [2], above 16 µg/mL; in test [3], above 16 µg/mL; in test [4], 0.5 µg/mL; in test [5] it was 2 µg/mL.
As for `CC(C)COC(=O)[C@H](Cn1ccnc1)NC(=O)c1ccc(-c2ccccc2F)cc1F`, the MIC in test [1] is above 16 µg/mL; in [2] it was above 16 µg/mL; in test [3], 0.5 µg/mL; in test [4], 0.25 µg/mL; in test [5], 0.125 µg/mL.
In the case of `CC(C)COC(=O)[C@H](Cn1ccnc1)NC(=O)c1ccc(-c2ccc(C#N)cc2)cc1F`, the MIC in [1] was above 16 µg/mL; in test [2] it was above 16 µg/mL; in [3] it was above 16 µg/mL; in [4], 0.5 µg/mL; in [5] it was above 16 µg/mL.
For the molecule `CC(C)COC(=O)[C@H](Cn1ccnc1)NC(=O)c1ccc(-c2ccccc2)c(Cl)c1`, the MIC was 8 µg/mL in [1]; above 16 µg/mL in test [2]; 4 µg/mL in test [3]; 0.25 µg/mL in test [4]; 8 µg/mL in test [5].
In the case of `OC(Cn1cncn1)(Cn1cncn1)c1ccc(F)cc1F` [FLUCONAZOLE], the minimum inhibitory concentration (MIC) is 4 µg/mL in test [1]; above 16 µg/mL in test [2]; above 64 µg/mL in [9]; 0.5 µg/mL in test [3]; 1 µg/mL in [4]; above 64 µg/mL in test [12]. Besides, the MIC in [5] stood at 1 µg/mL.
As to `COc1cc(-c2ccccc2)ccc1C(=O)N[C@@H](Cn1ccnc1)C(=O)OC(C)C`, the MIC in test [1] was above 16 µg/mL; in [2], above 16 µg/mL; in test [3], 8 µg/mL; in test [4] it was 1 µg/mL; in test [5] it was 1 µg/mL.
`CC(C)OC(=O)[C@H](Cn1ccnc1)NC(=O)c1ccc(-c2ccccc2F)c(F)c1`: the MIC in [1] is 8 µg/mL; in test [2], above 16 µg/mL; in [9], 2 µg/mL; in test [3], 0.0625 µg/mL; in test [4], 0.0312 µg/mL; in [12], 16 µg/mL. Besides, the MIC in test [5] is 0.0312 µg/mL.
With `CC(C)COC(=O)[C@H](Cn1ccnc1)NC(=O)c1c(F)cc(-c2ccccc2)cc1F`, the MIC in [1] is above 16 µg/mL; in test [2], above 16 µg/mL; in [3] it was 0.5 µg/mL; in [4] it was 2 µg/mL; in test [5], 2 µg/mL.
